Results from paper PMC12030165, “Bioactivity of Synthesized Trifluoromethyl Thioxanthone Analogues” (Pharmaceuticals, 2025).

Key:
[1] = DPPH antioxidant activity assay
Protocol: To evaluate four synthesized compounds and Trolox (as a positive control), a 1 mg/mL concentration in methanol was first made from phenyl alcohol. The prepared solution was produced in concentrations of 1, 2, 3, 5, 7, 10, 20, 30, 50, and 80 µg/mL. The DPPH reagent was then diluted in 0.002% w/v methanol and combined in a […] ratio with the previously produced working concentrations. A blank solution of 100% methanol was used. All solutions were incubated at room temperature for 30 min in a dark environment. Their absorbance values were then determined using a UV-visible spectrophotometer set at a wavelength of 517 nm. The antioxidant capacity of each chemical compound fraction and Trolox were calculated using the following formula:% inhibition = ((Abs blank − Abs Sample)/Abs Blank) × 100 where:
Abs blank: Absorbance value of the control reaction containing all reagents except the synthesized compound.
Abs sample: The absorbance value of the synthesized compound [48].

[2] = parameters: method as in PMID 35200663; conditions: cell line not given; cited from earlier work
HeLa cells = tested on: HeLa cells; parameters: method as in PMID 31200286; conditions: same cell line; read-out: IC50 against HeLa cells, positive control; cited from earlier work

With `Cc1c(C)c2c(c(C)c1O)CCC(C)(C(=O)O)O2` (stereo not drawn) [Trolox, reference compound] the “% inhibition of DPPH radical (radical scavenging)” value (shortened to “% inhibition of DPPH radical”) ([1]; 1 µg/mL) was 30.5 ± 2.2%, the “% inhibition of DPPH radical” value ([1]; 2 µg/mL) was 23.6 ± 1.3% and the “% inhibition of DPPH radical” value ([1]; 3 µg/mL) was 61.4 ± 5.3%. The “% inhibition of DPPH radical” value ([1]; 5 µg/mL) was 90.7± 11.3%, the “% inhibition of DPPH radical” value ([1]; 7 µg/mL) was 95.3 ± 10.7% and the “% inhibition of DPPH radical” value ([1]; 10 µg/mL) was 95.9± 9.5%. The “% inhibition of DPPH radical” value ([1]; 20 µg/mL) was 96.7 ± 12.5%, the “% inhibition of DPPH radical” value ([1]; 30 µg/mL) was 97.2 ± 8.5% and the “% inhibition of DPPH radical” value ([1]; 50 µg/mL) was 98.1± 9.2%. For the same compound, the “% inhibition of DPPH radical” value ([1]; 80 µg/mL) was 98.9± 11.8%.

In the case of `C=C1C(=O)O[C@H]2/C=C(\C)CC/C=C(\C)CCC(=O)[C@]3(C)O[C@@H]3C[C@@H]12` [crassocolide N], the “cytotoxicity IC50” value [2] is listed as 4.7 µg/mL.

In the case of `COc1cccc2c1C(=O)c1c(O)c3c(c(O)c1C2=O)C[C@@](O)(C(=O)CO)C[C@@H]3O[C@H]1C[C@H](N)[C@H](O)[C@H](C)O1` [doxorubicin], the IC50 (HeLa cells) is listed as 1100 ± 15 nM.
